Data published in patent US9885060B2, “Alkene production” (Evonik Degussa GmbH, priority 2015, dated 2018).

Key:
Type in all cases: biochemical
OleT [1] = assay: Decarboxylation of FAs C22 to C4 employing the FDH-CamAB-OleT redox-cascade; settings: for Conversion / α-Olefin / Selectivity α-OH / Selectivity α-Olefin / Selectivity β-OH / Selectivity n-Alkanone: 10 mM substrate
Method: (§1) Enzymatic reactions (1 mL scale) were quenched by addition of 100 μL 5 N Extraction of substrate and products was performed with 500 μL EtOAc containing 0.1% 1-decanol as internal standard. The organic phase was dried over anhydrous Na2SO4. Derivatization of carboxylic acids (fatty acids and hydroxy acids) to the corresponding methyl esters was achieved by mixing the organic phase with MeOH (2.5:1.5 v/v) followed by supplementation of 5 to 15 μL of 2 M TMSCHN2 (trimethylsilyldiazomethane in diethyl ether). The mixture was incubated for 30 min, 25° C. and 750 rpm before injection into GC-FID or GC-MS, Extraction and derivatization of products and substrates from conversion of short chain FAs ([…]) was performed using the same protocol but all steps were performed on ice to prevent undesired loss of volatile products.
(§2) Products from FA substrates with chain lengths ranging from C22 to C10 were separated on a HP5 column (Programm) and detected by GC-FID or GC-MS. Extracted products from conversion of nonanoic acid (I-octene as product) were separated on a DB1702 column (Programm) and detected by GC-FID. Authentic standards of substrates and terminal olefins were treated as described above and were used as references for identification and preparation of calibration curves. Detection of volatile short chain terminal olefins (1-butene/1-propene [ongoing] to 1-heptene) was accomplished by manual injection from vial headspaces into GC-MS, in order to prevent loss of products, the vials containing the reaction mixtures were sealed with a PTFE septum. After conversion the closed vial was heated for 10 min at 80° C., together with a 10 ml syringe (TYPE). From the headspace 2 to 9 μl volumes were injected splitless into a GC-MS chromatograph and analytes were separated on a HP5 column (Programm). Calibration curves for 1-pentene, 1-hexene and 1-heptene were prepared in the same way at 4° C. and using 5% DMF as cosolvent.
The substrate scope of OleT was further investigated by varying the FA chain length from C3 to C22. […] For the first time, short EAs could be decarboxylated to the corresponding olefins, covering the whole spectrum from C11 down to C4. […] Due to the high volatility of short chain olefins, product work up was done at 4° C. […] (2.53 mM product from 5 mM lauric acid). Head-space analysis by GC-MS from reactions with short chain FAs (C8-C5) confirmed the formation of the respective α-olefins, allowing the first biotechnological access to 1-heptene, 1-hexene and 1-pentene and 1-butene with OleT.
Conversion of heptanoic acid was carried out as described in Example 4 using the OleTCamAB-FDH reaction cascade.
Calibration curves for 1-hexene were prepared accordingly ranging from 0.05 to 2 mM. Due to a strong overlap of […] with the peak areas of CO2 and EtOH (FIG. 1, peaks a, b and c) the ion extraction mode of the GC-MS to generate reliable calibration curves was used. Neither CO2 nor EtOH interfered with the product peak area. This can be seen comparing FIGS. 1 and 5 which allow reliable and linear quantification of 1-hexene (FIG. 6) using manual headspace GC-MS injection.
Manual headspace injection into GC-MS was successfully performed for all substrates with chain lengths of C11 to C6. Conversion of 10 mM heptanoic acid allowed reliable formation of up to 1.3 mM 1-hexene without further optimization of the reaction conditions.

OleT [2] = assay: Decarboxylation of stearic and palmitic acid by OleT using O2/CamAB or H2O2 as oxidant; settings: 1 μM OleT, 1 mM substrate
OleT [3] = assay: Decarboxylation of stearic acid by OleT with CamAB redox cascade and NAD(P)H regeneration system (GDH, PDH, FDH)
Method: as §1, §2
After 24 h reaction time, product concentrations of 1.16 mM (0.27 g L-1) 1-heptadecene and 1 mM (0.21 g L-1) 1-pentadecene were obtained but could not be further enhanced. […] Compared to a previously published whole cell reaction system, this FDH-driven system allows 6 times higher product titer and a 21 times higher volumetric productivity with 42.5 mg L-1 h-1 of α-olefin after 8 h reaction time vs: 98 mg L-1 in 48 h) (Table 2).

[4] = 200 μM NADPH + O2, CamAB, 60 min
[5] = 1 mM H2O2, 150 min, no CamAB, strong precipitation observed
[6] = 1 mM NADPH + O2, CamAB, 150 min
[7] = FDH-based regeneration, 5 mM stearic acid
[8] = Formate [8 h], FDH-CamAB, purified OleT 3 μM, 5 mM stearic acid
[9] = Formate, FDH-(Fdr/Fdx) without CamAB, cell free lysate OleT 3 μM, 5 mM stearic acid, 24 h
[10] = Formate, FDH-CamAB, purified OleT 1.5 μM, 5 mM stearic acid, 24 h
[11] = Formate, FDH-CamAB-Fdr/Fdx, cell free lysate OleT 3 μM, 5 mM stearic acid, 24 h
[12] = Glucose, GDH-CamAB, purified OleT 1.5 μM, 5 mM stearic acid, 24 h
[13] = PDH-based regeneration, 5 mM stearic acid
[14] = Phosphite, PDH-CamAB, purified OleT 1.5 μM, 5 mM stearic acid, 24 h

Question: Which Conversion (OleT [1]; 4 °C, 72 h) does the source give for `CCCCCCCC(=O)O` [C8, caprylic acid/octanoic acid] here?
Answer: 1.4%

Question: And the α-Olefin (OleT [1]; 4 °C, 72 h)?
Answer: 141 µM

Question: What about the Conversion (OleT [1]; 25 °C, 24 h) of the same compound?
Answer: 3.6%

Question: And the α-Olefin (OleT [1]; 25 °C, 24 h)?
Answer: 364 µM

Question: For `CCCCCCCCC(=O)O` [C9, nonanoic acid], which Conversion (OleT [1]; 4 °C, 72 h) is on record?
Answer: 13%

Question: And the α-Olefin (OleT [1]; 4 °C, 72 h)?
Answer: 1347 µM

Question: And the Conversion (OleT [1]; 25 °C, 24 h)?
Answer: 18%

Question: And the “Selectivity α-OH” value (OleT [1]; 25 °C, 24 h)?
Answer: 17 % GC-area

Question: What about the “Selectivity α-Olefin” value (OleT [1]; 25 °C, 24 h) of the same compound?
Answer: 53 % GC-area

Question: And the “Selectivity β-OH” value (OleT [1]; 25 °C, 24 h)?
Answer: 30 % GC-area

Question: And the α-Olefin (OleT [1]; 25 °C, 24 h)?
Answer: 1829 µM

Question: With `CCCCCCCCCC(=O)O` [C10, capric acid/decanoic acid] as the compound, how does the Conversion (OleT [1]; 4 °C, 72 h) read?
Answer: 0.7%

Question: What about the “Selectivity α-Olefin” value (OleT [1]; 4 °C, 72 h) of the same compound?
Answer: >99 % GC-area

Question: What about the α-Olefin (OleT [1]; 4 °C, 72 h) of the same compound?
Answer: 71 µM

Question: And the Conversion (OleT [1]; 25 °C, 24 h)?
Answer: 0.4%

Question: What about the “Selectivity α-Olefin” value (OleT [1]; 25 °C, 24 h) of the same compound?
Answer: >99 % GC-area

Question: And the “Selectivity β-OH” value (OleT [1]; 25 °C, 24 h)?
Answer: Traces

Question: And the α-Olefin (OleT [1]; 25 °C, 24 h)?
Answer: 44 µM

Question: `CCCCCCCCCCCCCCCCCC(=O)O` [Stearic Acid, stearic acid] was tested. Which Coupling (OleT [2]; 200 μM H2O2, 60 min, no CamAB) did it give?
Answer: 85%

Question: What about the TOF (OleT [2]; 200 μM H2O2, 60 min, no CamAB) of the same compound?
Answer: 170 h⁻¹

Question: And the TON (OleT [2]; 200 μM H2O2, 60 min, no CamAB)?
Answer: 170

Question: What about the α-Olefin (OleT [2]; 200 μM H2O2, 60 min, no CamAB) of the same compound?
Answer: 170 ± 7 µM

Question: And the Coupling (OleT [2]; 200 μM NADH + O2, CamAB, 6 min)?
Answer: 7%

Question: And the TOF (OleT [2]; 200 μM NADH + O2, CamAB, 6 min)?
Answer: 150 h⁻¹

Question: What about the TON (OleT [2]; 200 μM NADH + O2, CamAB, 6 min) of the same compound?
Answer: 15

Question: What about the α-Olefin (OleT [2]; 200 μM NADH + O2, CamAB, 6 min) of the same compound?
Answer: 15 ± 1 µM

Question: And the Coupling (OleT [2]; [4])?
Answer: 25%

Question: What about the TOF (OleT [2]; [4]) of the same compound?
Answer: 53 h⁻¹

Question: What about the TON (OleT [2]; [4]) of the same compound?
Answer: 53

Question: What about the α-Olefin (OleT [2]; [4]) of the same compound?
Answer: 53 ± 5 µM

Question: What about the Coupling (OleT [2]; [5]) of the same compound?
Answer: 5%

Question: And the TOF (OleT [2]; [5])?
Answer: 21 h⁻¹

Question: What about the TON (OleT [2]; [5]) of the same compound?
Answer: 53

Question: What about the α-Olefin (OleT [2]; [5]) of the same compound?
Answer: 53 ± 15 µM

Question: And the Coupling (OleT [2]; 1 mM NADH + O2, CamAB, 60 min)?
Answer: 2%

Question: What about the TOF (OleT [2]; 1 mM NADH + O2, CamAB, 60 min) of the same compound?
Answer: 20 h⁻¹

Question: And the TON (OleT [2]; 1 mM NADH + O2, CamAB, 60 min)?
Answer: 20

Question: What about the α-Olefin (OleT [2]; 1 mM NADH + O2, CamAB, 60 min) of the same compound?
Answer: 20 ± 2 µM

Question: What about the Coupling (OleT [2]; [6]) of the same compound?
Answer: 11%

Question: And the TOF (OleT [2]; [6])?
Answer: 47 h⁻¹

Question: And the TON (OleT [2]; [6])?
Answer: 118

Question: What about the α-Olefin (OleT [2]; [6]) of the same compound?
Answer: 118 ± 23 µM

Question: What about the Conversion (OleT [3]; [7]) of the same compound?
Answer: 62%

Question: And the TIN (OleT [3]; [7])?
Answer: 2096

Question: And the “volumetric productivity of α-olefin” value (OleT [3]; FDH-driven system, after 8 h reaction time)?
Answer: 42.5 mg/L/h

Question: And the Product (OleT [3]; [8])?
Answer: 0.34 g/L

Question: What about the TTN (OleT [3]; [8]) of the same compound?
Answer: 473

Question: What about the α-Olefin (OleT [3]; [8]) of the same compound?
Answer: 1419 µM

Question: What about the Product (OleT [3]; [9]) of the same compound?
Answer: 0.1 g/L

Question: What about the TTN (OleT [3]; [9]) of the same compound?
Answer: 151

Question: And the α-Olefin (OleT [3]; [9])?
Answer: 452 ± 52 µM

Question: And the Product (OleT [3]; [10])?
Answer: 0.75 g/L

Question: What about the TTN (OleT [3]; [10]) of the same compound?
Answer: 2096

Question: What about the α-Olefin (OleT [3]; [10]) of the same compound?
Answer: 3144 ± 121 µM

Question: What about the Product (OleT [3]; [11]) of the same compound?
Answer: 0.37 g/L

Question: What about the TTN (OleT [3]; [11]) of the same compound?
Answer: 522

Question: And the α-Olefin (OleT [3]; [11])?
Answer: 1565 ± 20 µM

Question: And the Conversion (OleT [3]; GDH-based system, 1 mM stearic acid)?
Answer: 36%

Question: And the TIN (OleT [3]; GDH-based system, 10 mM stearic acid)?
Answer: up to 389

Question: What about the Product (OleT [3]; [12]) of the same compound?
Answer: 0.24 g/L

Question: What about the TTN (OleT [3]; [12]) of the same compound?
Answer: 680

Question: And the α-Olefin (OleT [3]; [12])?
Answer: 1020 ± 63 µM

Question: What about the Conversion (OleT [3]; [13]) of the same compound?
Answer: 52%

Question: What about the TIN (OleT [3]; [13]) of the same compound?
Answer: 1739

Question: And the Product (OleT [3]; [14])?
Answer: 0.62 g/L

Question: And the TTN (OleT [3]; [14])?
Answer: 1739

Question: What about the α-Olefin (OleT [3]; [14]) of the same compound?
Answer: 2609 ± 256 µM

Question: What about the Conversion (OleT [1]; 4 °C, 72 h) of the same compound?
Answer: 25%

Question: And the “Selectivity n-Alkanone” value (OleT [1]; 4 °C, 72 h)?
Answer: 5 % GC-area

Question: What about the “Selectivity α-OH” value (OleT [1]; 4 °C, 72 h) of the same compound?
Answer: <1 % GC-area

Question: And the “Selectivity α-Olefin” value (OleT [1]; 4 °C, 72 h)?
Answer: 93 % GC-area

Question: What about the “Selectivity β-OH” value (OleT [1]; 4 °C, 72 h) of the same compound?
Answer: 5 % GC-area

Question: And the α-Olefin (OleT [1]; 4 °C, 72 h)?
Answer: 2451 µM

Question: And the Conversion (OleT [1]; 25 °C, 24 h)?
Answer: 39%

Question: What about the “Selectivity n-Alkanone” value (OleT [1]; 25 °C, 24 h) of the same compound?
Answer: 6 % GC-area

Question: What about the “Selectivity α-OH” value (OleT [1]; 25 °C, 24 h) of the same compound?
Answer: 2 % GC-area

Question: And the “Selectivity α-Olefin” value (OleT [1]; 25 °C, 24 h)?
Answer: 86 % GC-area

Question: And the “Selectivity β-OH” value (OleT [1]; 25 °C, 24 h)?
Answer: 8 % GC-area

Question: What about the α-Olefin (OleT [1]; 25 °C, 24 h) of the same compound?
Answer: 3886 µM

Question: What about the maximum product concentration (OleT [1]; RT, 5 mM stearic acid) of the same compound?
Answer: 2.45 mM

Question: What does the source list for `CCCCCCC(=O)O` [C7, heptanoic acid]?
Answer: formation of 1-hexene (OleT [1]; 10 mM heptanoic acid, manual headspace GC-MS): up to 1.3 mM; Conversion (OleT [1]; 4 °C, 72 h): 9.5%; α-Olefin (OleT [1]; 4 °C, 72 h): 946 µM; Conversion (OleT [1]; 25 °C, 24 h): 13%; α-Olefin (OleT [1]; 25 °C, 24 h): 1298 µM
